In patent publication US8802104B2, “Parathyroid hormone receptor activation and stem and progenitor cell expansion” (The General Hospital Corporation, priority 2002, dated 2014):

How the values were obtained:
[1] = tested on: lin-Sca-1+c-Kit+ cells in bone marrow; assay: In vivo PTH administration: flow cytometry of lin-Sca-1+c-Kit+ cells; design: species or system C57Bl/6 mice; details: four weeks PTH; P<0.01, FIG. 5d
Source text: Bone marrow mononuclear cells were isolated as described above. Single cell suspensions were then stained with biotinylated lineage antibodies (CD3, CD4, CD8, Ter119, Gr-1, Mac-1 and B220) and phycoerythrin conjugated anti-Sca-1 and anti-c-Kit (Pharmingen, San Diego, Calif.). Cells were then labeled with a secondary fluorescein isothiocyanante conjugated streptavidin and analyzed on a FACScalibur cytometer (Becton Dickinson and Co., Franklin Lakes, N.J.) using Cell Quest software. […]
For PTH administration, 6-8 week old wild type C57/B male mice were used. […] At the end of the treatment period, ionized serum calcium was measured by the Ciba/Corning 634 Ca^++/pH analyzer, and, after euthanasia, the hind limbs and forelimbs were dissected and utilized for cytologic and histologic analysis.
As treatment of stromal cells with PTH led to an increase in the ability of the stromal cell population to support hematopoietic stem cells, it was investigated whether these effects could be recapitulated in vivo. Wild-type C57Bl/6 mice were injected daily with PTH using an intermittent dosing schedule known to increase osteoblasts, and the frequencies of LTC-ICs in the bone marrow were measured. […]

[2] = tested on: HSC pool in the bone marrow; assay: HSC pool in bone marrow following chemotherapy (competitive transplant); format: in vivo, C57Bl/6 mice
Method: (§1) Wild-type C57Bl/6 mice were treated with 5 mg of cyclophosphamide (Day 1). The day following injection of cyclophosphamide, mice received no treatment or were treated for 8 days with G-CSF (5 μg/day), 11 days with PTH (80 μg/kg/day) or a combination of G-CSF plus PTH. Mice that received a combination of both G-CSF and PTH received G-CSF treatment for 8 days and PTH treatment for 11 days. Following this treatment protocol, mice were injected with cyclophosphamide on Day 15 and treated with G-CSF, PTH or G-CSF and PTH as described above. The treatment protocol was then repeated for two subsequent cycles, as outlined in FIG. 7.
(§2) At the end of the four-cycle treatment with cyclophosphamide and G-CSF/PTH, the bone marrow was removed from the treated mice and competitive transplants into B6.SJL mice were performed to measure the maintenance of the HSC pool in the bone marrow. This involved mixing 5×10^5 BM cells from the treated C57Bl/6 mice (CD45.2) with 2.5×10^5 BM cells from the B6.SJL mice (CD45.1). These cells were then injected into lethally irradiated B6.SJL mice. Eighteen weeks following injection of the cells, peripheral blood was collected from the mice and the relative contribution of the HSCs from the treated animals was measured by flow cytometry for the CD45.2^+ cells. To assess the ability of the HSCs to be mobilized into the peripheral circulation, one week following treatment mice were mobilized with G-CSF (5 μg/day) for 5 days. Peripheral blood (300 μl) was collected from these mice and mixed with 2.5×10^5 BM cells from a B6.SJL mouse. These cells were injected into a lethally irradiated B6.SJL host. Eighteen weeks following injection of the cells, peripheral blood was collected from the mice and the relative contribution of the HSCs from the treated animals was measured by flow cytometry for the CD45.2^+ cells.

[3] = tested on: HSCs in the peripheral circulation; assay: G-CSF mobilization of HSCs into peripheral circulation after chemotherapy; format: in vivo, C57Bl/6 mice
Method: as §1, §2

[4] = tested on: C-1498/GFP leukemia cells; assay: Leukemia outgrowth in niche-stimulated animals; format: in vivo, mice
Source text: The kinetics of leukemia cell engraftment, growth, and maturation were studied in normal mice. In an effort to analyze the growth and fate of C-1498 leukemia cells transplanted into mice, the cells were transduced with a retrovirus expressing GFP(C-1498/GFP). This allows easy tracking of these cells in vivo using GFP as a marker (FIG. 9a). The acute myelogenous leukemia cell line C-1498, a spontaneously-arising acute myelomonocytic leukemia derived from C57/BL6 (H2-b) mice, is easily transplantable, can be cultured in vitro, and infected with retroviruses.
Attention was subsequently directed to determining how activation of the stem cell niche with PTH might affect leukemia growth and maturation. To investigate the kinetics of leukemia outgrowth in “niche-stimulated” animals, animals were pre-stimulated with PTH at 80 μg/kg/day (versus saline alone) for one month. Mice were then lethally irradiated at 10 Gray, and then transplanted with 50,000 leukemia cells (GFP+) and 1×10^6 normal bone marrow cells (GFP-) (FIG. 10a). At 15 days post-transplantation, bone marrow was harvested, and, then, GFP-positive cells were scored as percentage and in absolute number. Since the absolute number of total cells was not statistically different between both groups, only the percentage figures are shown in FIG. 10b, left panel.
In mock-treated animals, osteoblasts and osteoprogenitors, identified at PTH-receptor positive cells, were found lining the endostial surfaces of bone.

leukemic cells = assay: Direct effect of PTH on leukemic cells in vitro; format: cell-based

In the case of Rat PTH (1-34), the “lin-Sca-1+c-Kit+ cells compared with mock treated controls” value [1] is reported as “higher frequency and absolute number”, the “HSC pool in the bone marrow following myelotoxic chemotherapy” value ([2]; PTH, non-G-CSF treated animals) is reported as “increased the HSC pool” and the “HSC pool in the bone marrow following chemotherapy” value ([2]; concurrent treatment with PTH and G-CSF) is reported as “retention of the HSC pool”. For the same substance, the “mobilization of HSCs into the circulation with G-CSF” value ([3]; no supportive G-CSF during chemotherapy, prior PTH treatment) was “increased with prior PTH treatment”, the “mobilization of HSCs into the peripheral circulation” value ([3]; supportive G-CSF with concurrent PTH) was “partially reversed” and the “localisation of PTH-r positive cells (osteoblasts, osteoprogenitors)” value ([4]; 10 micron bone sections, PTH-treated animals) was “migrated extensively into the marrow”. For the same substance, the “GFP-positive leukemia cells in bone sections (histology)” value ([4]; 10 micron bone sections, PTH-treated vs mock-treated) was “markedly reduced”, the “number of GFP-positive leukemia initiating cells in bone marrow” value ([4]; PTH 80 μg/kg/day one month pre-stimulation, 15 days post-transplantation, 3 of 3 experiments) was “markedly reduced” and the “kinetics of normal hematopoiesis” value ([4]; PTH treated animal, FIG. 11) was “did not change”. For the same substance, the “direct effect on leukemic cells” value (leukemic cells) was “did not directly affect”.
